Laboratory results published in patent publication US12065442B2, “Tropomyosin receptor kinase (TRK) degradation compounds and methods of use” (Cullgen (Shanghai), Inc., priority 2018, dated 2024).

system: KM12 cells; assay: Cell viability assay (CellTiter-Glo) in KM12 cells; format: cell-based; settings: Homo sapiens, 72 h; Table 3; KM12 cell viability, CellTiter-Glo, 3 days; read-out: IC50

In order of falling IC50:
1. O=C(CN1CCN(c2cccc(-c3cnc4ccc(N5CCC[C@@H]5c5cccc(F)c5)nn34)n2)CC1)NCCCCCCCNc1ccc2c(c1)C(=O)N(C1CCC(=O)NC1=O)C2=O (stereo partly drawn) [TR-126, N-(7-((2-(2,6-dioxopiperidin-3-yl)-1,3-dioxoisoindolin-5-yl)amino)heptyl)-2-(4-(6-(6-((R)-2-(3-fluorophenyl)pyrrolidin-1-yl)imidazo[1,2-b]pyridazin-3-yl)pyridin-2-yl)piperazin-1-yl)acetamide]  12.5 nM
2. O=C1CCC(N2C(=O)c3ccc(NCCOCCOCCOCCOCCC(=O)N4CCN(c5cccc(-c6cnc7ccc(N8CCC[C@@H]8c8cccc(F)c8)nn67)n5)CC4)cc3C2=O)C(=O)N1 (stereo partly drawn) [TR-120, 2-(2,6-Dioxopiperidin-3-yl)-5-((15-(4-(6-(6-((R)-2-(3-fluorophenyl)pyrrolidin-1-yl)imidazo[1,2-b]pyridazin-3-yl)pyridin-2-yl)piperazin-1-yl)-15-oxo-3,6,9,12-tetraoxapentadecyl)amino)isoindoline-1,3-dione]  10 nM
3. O=C(CN1CCN(c2cccc(-c3cnc4ccc(N5CCC[C@@H]5c5cccc(F)c5)nn34)n2)CC1)NCCCCNc1ccc2c(c1)C(=O)N(C1CCC(=O)NC1=O)C2=O (stereo partly drawn) [TR-124, N-(4-((2-(2,6-dioxopiperidin-3-yl)-1,3-dioxoisoindolin-5-yl)amino)butyl)-2-(4-(6-(6-((R)-2-(3-fluorophenyl)pyrrolidin-1-yl)imidazo[1,2-b]pyridazin-3-yl)pyridin-2-yl)piperazin-1-yl)acetamide]  2.8 nM
4. O=C(CN1CCN(c2cccc(-c3cnc4ccc(N5CCC[C@@H]5c5cccc(F)c5)nn34)n2)CC1)NCCOCCOCCOCCOCCNc1ccc2c(c1)C(=O)N(C1CCC(=O)NC1=O)C2=O (stereo partly drawn) [TR-125, N-(14-((2-(2,6-dioxopiperidin-3-yl)-1,3-dioxoisoindolin-5-yl)amino)-3,6,9,12-tetraoxatetradecyl)-2-(4-(6-(6-((R)-2-(3-fluorophenyl)pyrrolidin-1-yl)imidazo[1,2-b]pyridazin-3-yl)pyridin-2-yl)piperazin-1-yl)acetamide]  2.8 nM
5. O=C1CCC(N2C(=O)c3ccc(NCCCCCC(=O)N4CCN(c5cccc(-c6cnc7ccc(N8CCC[C@@H]8c8cccc(F)c8)nn67)n5)CC4)cc3C2=O)C(=O)N1 (stereo partly drawn) [TR-122, 2-(2,6-Dioxopiperidin-3-yl)-5-((6-(4-(6-(6-((R)-2-(3-fluorophenyl)pyrrolidin-1-yl)imidazo[1,2-b]pyridazin-3-yl)pyridin-2-yl)piperazin-1-yl)-6-oxohexyl)amino)isoindoline-1,3-dione]  2.7 nM
6. O=C(CN1CCN(c2cccc(-c3cnc4ccc(N5CCC[C@@H]5c5cccc(F)c5)nn34)n2)CC1)NCCCNc1ccc2c(c1)C(=O)N(C1CCC(=O)NC1=O)C2=O (stereo partly drawn) [TR-127, N-(3-((2-(2,6-dioxopiperidin-3-yl)-1,3-dioxoisoindolin-5-yl)amino)propyl)-2-(4-(6-(6-((R)-2-(3-fluorophenyl)pyrrolidin-1-yl)imidazo[1,2-b]pyridazin-3-yl)pyridin-2-yl)piperazin-1-yl)acetamide]  2.7 nM
7. O=C1CCC(N2C(=O)c3ccc(NCCC(=O)N4CCN(c5cccc(-c6cnc7ccc(N8CCC[C@@H]8c8cccc(F)c8)nn67)n5)CC4)cc3C2=O)C(=O)N1 (stereo partly drawn) [TR-121, 2-(2,6-Dioxopiperidin-3-yl)-5-((3-(4-(6-(6-((R)-2-(3-fluorophenyl)pyrrolidin-1-yl)imidazo[1,2-b]pyridazin-3-yl)pyridin-2-yl)piperazin-1-yl)-3-oxopropyl)amino)isoindoline-1,3-dione]  2.1 nM
8. O=C1CCC(N2C(=O)c3ccc(NCCOCCC(=O)N4CCN(c5cccc(-c6cnc7ccc(N8CCC[C@@H]8c8cccc(F)c8)nn67)n5)CC4)cc3C2=O)C(=O)N1 (stereo partly drawn) [TR-119, 2-(2,6-Dioxopiperidin-3-yl)-5-((2-(3-(4-(6-(6-((R)-2-(3-fluorophenyl)pyrrolidin-1-yl)imidazo[1,2-b]pyridazin-3-yl)pyridin-2-yl)piperazin-1-yl)-3-oxopropoxy)ethyl)amino)isoindoline-1,3-dione]  1.6 nM
